The values that follow are results of earlier work, collected in patent publication US6635288B2, “Composition for suppressing cellular fibrousing and method for preparing an extract from loquat seeds” (Kochi Medical School, priority 2000, dated 2003).

This data set deals with rats. Conditions: Carter et al., Biochem. Pharmacol. 29, 301 (1980).

On to `N#C[C@H](O[C@@H]1O[C@H](CO[C@@H]2O[C@H](CO)[C@@H](O)[C@H](O)[C@H]2O)[C@@H](O)[C@H](O)[C@H]1O)c1ccccc1` [amygdalin], for which the lethal dose was 600 mg.
